# Assay results from patent US8759348B2, “Use of 4-(pyrrolidin-1-yl)quinoline compounds to kill clinically latent microorganisms” (Helperby Therapeutics Limited, priority 2007, dated 2014).
# Assays:
# [1] = system: Staph. aureus stationary phase bacteria; assay: Bactericidal activity against stationary-phase cultures (CFU counts); type: cell-based, Staphylococcus aureus; conditions: 5 μg/mL of test compound
# [2] = system: methicillin-resistant Staph. aureus stationary phase bacteria; assay: as above; type: cell-based, Methicillin resistant S. aureus (MRSA); conditions: MRSA stationary phase, 10 μg/mL of test compound
# [3] = system: Streptococcus agalactiae stationary phase bacteria; assay: as above; type: cell-based; conditions: 10 μg/mL of test compound
# [4] = system: stationary phase Candida albicans; assay: Activity against stationary-phase cultures of Candida albicans (CFU counts); type: cell-based; conditions: 10 μg/mL of test compound
# [5] = system: stationary phase Mycobacterium tuberculosis; assay: Bactericidal activity against M. tuberculosis stationary-phase cultures (Model 1); type: cell-based; conditions: 10 μg/mL of test compound
# [6] = system: Streptococcus pyogenes stationary phase bacteria; assay: Bactericidal activity against stationary-phase cultures (CFU counts); type: cell-based; conditions: 20 μg/mL of test compound
# [7] = system: Coagulase negative staphylococcus stationary phase bacteria; assay: as above; type: cell-based, Coagulase negative staphylococcus (CNS); conditions: 5 μg/mL of test compound
# [8] = system: Enterococcus stationary phase bacteria; assay: as above; type: cell-based; conditions: 5 μg/mL of test compound
# [9] = system: Streptococcus pneumoniae stationary phase bacteria; assay: as above; type: cell-based; conditions: 10 μg/mL of test compound
# [10] = system: E. coli K12 stationary phase bacteria; assay: as above; type: cell-based, Escherichia coli K12; conditions: 10 μg/mL of test compound
# [11] = system: Propionibacterium acnes stationary phase bacteria; assay: as above; type: cell-based; conditions: 10 μg/mL of test compound
smiles,measurement,setting,value
"Cc1cc(N2CCC(c3ccccc3)C2)c2cc(OCCc3ccccc3)ccc2n1.Cl (centres unmarked) [Example 6, 2-Methyl-6-phenethyloxy-4-(3-phenylpyrrolidin-1-yl)quinoline hydrochloride]",log kill,[1],6.16
"Cc1cc(N2CCC(Cc3ccccc3)C2)c2cc(Oc3ccccc3)ccc2n1.Cl (centres unmarked) [Example 8, 4-(3-Benzylpyrrolidin-1-yl)-2-methyl-6-phenoxyquinoline hydrochloride]",log kill,[2],6.34
same,log kill,[3],0.97
same,log kill,[4],3.70
same,log kill,[5],5.76
"COc1ccc(C2CCN(c3cc(C)nc4ccc(Oc5ccccc5)cc34)C2)cc1.Cl (centres unmarked) [Example 9, 4-[3-(4-Methoxyphenyl)pyrrolidin-1-yl]-2-methyl-6-phenoxyquinoline hydrochloride]",log kill,[6],6.42
"Cc1cc(N2CCC(c3ccccc3)C2)c2cc(NC(=O)c3cc(C)[nH]n3)ccc2n1.Cl (centres unmarked) [Example 22, 5-Methyl-1H-pyrazole-3-carboxylic acid [2-methyl-4-(3-phenylpyrrolidin-1-yl)-quinolin-6-yl]amide hydrochloride]",log kill,[7],5.99
same,log kill,[8],3.22
"Cc1cc(N2CCC(c3ccccc3)C2)c2cc(Oc3ccccc3)ccc2n1.Cl (centres unmarked) [Example 39, 2-Methyl-6-phenoxy-4-(3-phenylpyrrolidin-1-yl)quinoline hydrochloride]",log kill,[9],7.32
same,log kill,[10],6.80
same,log kill,[11],6.34
